Results: publication PMC6610938 (BMC Microbiology, 2019)
Converted amounts (≈) assume the structure as drawn.

Experiments:
[1] = system: T1, Pseudomonas aeruginosa CLB 24228; assay: microbe, parasite or virus in culture; set-up: CLSI broth microdilution MIC in cation-adjusted Mueller Hinton broth, standard inoculum; settings: CLB24228, inoculum 5 x 10^5 CFU/mL, run 1
T1 construct: CLB 24228
Protocol: (§1) Each strain was tested at the standard inoculum of 5 × 10^5 colony forming units (CFU)/mL, as well as at inocula lower (5 × 10^4) and greater (5 × 10^6) than the standard inoculum. Antibacterial susceptibility testing for each P. aeruginosa isolate obtained from the four isolate sources listed above was performed using standard CLSI broth microdilution methodology using cation-adjusted Mueller Hinton broth.

[2] = system: T2, Pseudomonas aeruginosa ATCC 27853; assay: microbe, parasite or virus in culture; set-up: CLSI broth microdilution MIC in cation-adjusted Mueller Hinton broth, standard inoculum; settings: ATCC27853, inoculum 5 x 10^5 CFU/mL, run 1
T2 construct: ATCC 27853
Protocol: as §1

With `C[C@@H](O)[C@H]1C(=O)N2C(C(=O)O)=C(SCCNC=N)C[C@H]12` [IMI, imipenem] as the compound, how does the MIC [1] read?
The MIC was 32 µg/mL (≈ 107 µM).

What about the MIC [2] of the same compound?
Its MIC is 2 µg/mL (≈ 6.68 µM).
